Measured values reported in patent publication US8846746B2, “Pyrazole compound and pharmaceutical use thereof” (Japan Tobacco Inc., priority 2011, dated 2014).

Biological target: human SGLT1 (Homo sapiens (Human), UniProt P13866)
Test: SGLT1 inhibitory activity: 14C-AMG uptake into CHO-K1 cell line stably expressing human SGLT1
Assay type: cell-based
Settings: for IC50: 14C-AMG uptake; for inhibition at 0.1 µM: CHO-K1, at 0.1 uM
Outline: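 Human SGLT1 was stably expressed in CHO-K1 cells. Cells were first held 20 min in sodium-free buffer, then exposed to compound in Na(+)/BSA buffer with tracer and AMG (2 mM in the added solution).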

[1] = CHO-K1 cells stably expressing human SGLT1
[2] = CHO-K1 cells expressing human SGLT1

human SGLT1, sequence (P13866 whole entry): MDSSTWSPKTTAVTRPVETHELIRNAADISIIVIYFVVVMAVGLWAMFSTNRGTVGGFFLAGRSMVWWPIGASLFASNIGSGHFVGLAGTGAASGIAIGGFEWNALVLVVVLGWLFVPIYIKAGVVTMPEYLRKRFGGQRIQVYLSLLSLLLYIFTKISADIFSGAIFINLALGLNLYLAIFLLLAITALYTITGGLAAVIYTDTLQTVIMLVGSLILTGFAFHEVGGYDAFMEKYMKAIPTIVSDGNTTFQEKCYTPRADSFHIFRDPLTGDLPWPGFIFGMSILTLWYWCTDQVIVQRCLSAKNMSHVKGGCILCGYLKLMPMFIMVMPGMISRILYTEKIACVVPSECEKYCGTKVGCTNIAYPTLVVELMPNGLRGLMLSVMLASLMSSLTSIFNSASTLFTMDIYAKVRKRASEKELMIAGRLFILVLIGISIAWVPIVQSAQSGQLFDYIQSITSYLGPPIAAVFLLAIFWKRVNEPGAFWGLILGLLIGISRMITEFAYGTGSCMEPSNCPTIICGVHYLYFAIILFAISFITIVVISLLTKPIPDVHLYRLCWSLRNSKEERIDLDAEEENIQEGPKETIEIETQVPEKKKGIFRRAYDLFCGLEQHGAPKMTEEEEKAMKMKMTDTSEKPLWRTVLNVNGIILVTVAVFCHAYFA

| SMILES | IC50 [1] [nM] | IC50 [2] [nM] | other results |
| --- | --- | --- | --- |
| Cc1ccccc1-n1nc(NC(=O)[C@H]2CNC(=O)C2)cc1-c1cccc(OCC(F)(F)F)c1 [Example 226] | – | 3.3 | – |
| C[C@@H](OCc1cc(F)cc(-c2cc(NC(=O)[C@H]3CCC(=O)N3)nn2-c2ccccc2)c1)C(F)(F)F [Example 554] | – | – | inhibition at 0.1 µM: 32% |
| O=C1CC[C@H](C(=O)Nc2cc(-c3cccc(COCC(F)(F)F)c3)n(-c3ccccc3)n2)N1 [Example 548] | – | – | inhibition at 0.1 µM: 3% |
| Cc1ccc(-n2nc(NC(=O)[C@H]3CNC(=O)[C@@H]3C)cc2-c2cccc(C(F)(F)F)c2)cc1 [Example 231] | – | 6.7 | – |
| C[C@H]1C(=O)NC[C@@H]1C(=O)Nc1cc(-c2cccc(OC(F)(F)F)c2)n(CCC2CCOCC2)n1 [Example 232] | – | 32 | – |
| CCCc1cccc(-c2cc(NC(=O)[C@H]3CNC(=O)C3)nn2-c2cccc(C)c2)c1 [Example 76] | – | 1.7 | – |

The next lines start with results.

| IC50 [1] [nM] | IC50 [2] [nM] | SMILES | other results |
| --- | --- | --- | --- |
| 6.9 | – | CCCc1cccc(-c2cc(NC(=O)[C@@H]3CNC(=O)C3)nn2-c2cccc(CC(C)C)c2)c1 [Example 496] | – |
| 29 | – | CCCc1cccc(-c2cc(NC(=O)[C@@H]3CNC(=O)N3CC)nn2-c2ccccc2)c1 [Example 295] | – |
| 7 | – | CCCc1cccc(-c2cc(NC(=O)[C@H]3CNC(=O)N3CC(F)(F)F)nn2-c2ccccc2)c1 [Example 385] | – |
| 45 | – | O=C1NC[C@@H](C(=O)Nc2cc(-c3cccc(OC(F)(F)F)c3)n(-c3ccccc3)n2)N1 [Example 266] | – |
